For assay [1], the target named is ALPK1 (Homo sapiens (Human), UniProt Q96QP1). The assay is described as follows: ALPK1 in vitro kinase assay (HTRF of TIFA phosphorylation). It is filed as biochemical.
Assay [2] relates to ALPK1-dependent NFκB reporter gene activation in HEK293 cells stably expressing an NF-kB reporter (G9 cells). The experiment in a line: NFκB gene reporter alkaline phosphatase assay. It is filed as cell-based. Particulars: Homo sapiens, HEK293; read-out: NFkB assay IC50. The method, boiled down:
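HEK293 G9 cells carrying an NF-κB-driven alkaline phosphatase reporter, pretreated 30 min with serially diluted compound, then stimulated with D-glycero-D-manno-6-fluoro-heptose-1β-S-ADP. Reporter activity read with chromogenic pNPP substrate; IC50 from four-parameter logistic fit.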

SMILES strings stand for the structures.

Sequence of ALPK1 (Q96QP1 whole entry): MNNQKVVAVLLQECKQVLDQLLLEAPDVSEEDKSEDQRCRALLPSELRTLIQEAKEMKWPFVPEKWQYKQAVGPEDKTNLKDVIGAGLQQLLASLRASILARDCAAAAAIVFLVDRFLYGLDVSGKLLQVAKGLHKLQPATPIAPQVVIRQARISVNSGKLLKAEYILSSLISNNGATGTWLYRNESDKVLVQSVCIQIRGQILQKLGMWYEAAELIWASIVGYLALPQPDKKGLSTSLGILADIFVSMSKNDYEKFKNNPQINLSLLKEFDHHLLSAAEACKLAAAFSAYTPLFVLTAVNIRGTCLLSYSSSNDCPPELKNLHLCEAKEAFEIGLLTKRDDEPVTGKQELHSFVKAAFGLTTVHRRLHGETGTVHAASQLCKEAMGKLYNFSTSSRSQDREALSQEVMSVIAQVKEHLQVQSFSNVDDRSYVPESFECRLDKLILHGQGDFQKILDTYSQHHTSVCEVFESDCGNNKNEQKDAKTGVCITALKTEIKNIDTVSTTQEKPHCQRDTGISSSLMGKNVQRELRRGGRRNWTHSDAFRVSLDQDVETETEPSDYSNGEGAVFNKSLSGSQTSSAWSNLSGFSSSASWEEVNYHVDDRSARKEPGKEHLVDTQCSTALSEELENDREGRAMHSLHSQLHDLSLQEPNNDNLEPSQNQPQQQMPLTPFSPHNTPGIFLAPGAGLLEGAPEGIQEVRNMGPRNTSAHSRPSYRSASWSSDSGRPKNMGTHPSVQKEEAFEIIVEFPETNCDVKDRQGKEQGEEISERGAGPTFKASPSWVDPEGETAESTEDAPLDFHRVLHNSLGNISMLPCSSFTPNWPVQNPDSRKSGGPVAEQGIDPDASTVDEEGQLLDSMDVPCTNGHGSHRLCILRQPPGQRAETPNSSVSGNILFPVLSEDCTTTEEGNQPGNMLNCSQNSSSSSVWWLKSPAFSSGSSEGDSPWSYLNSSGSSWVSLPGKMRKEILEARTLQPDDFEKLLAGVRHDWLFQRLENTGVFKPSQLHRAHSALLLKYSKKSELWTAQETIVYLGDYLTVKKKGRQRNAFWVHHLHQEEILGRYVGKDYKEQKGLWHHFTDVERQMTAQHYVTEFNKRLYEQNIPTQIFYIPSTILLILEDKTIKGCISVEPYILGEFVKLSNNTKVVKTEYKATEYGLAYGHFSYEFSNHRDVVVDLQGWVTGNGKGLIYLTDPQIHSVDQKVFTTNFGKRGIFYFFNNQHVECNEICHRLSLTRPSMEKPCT

Broadly, the IC50 is the concentration needed to halve the response being measured. With `C#C[C@@](C)(c1ccc(Cl)cc1)c1csc(NC(=O)NC[C@H](O)CO)n1` [Example A304, 1-(4-(2-(4-chlorophenyl)but-3-yn-2-yl)thiazol-2-yl)-3-((S)-2,3-dihydroxypropyl)urea], the values for the half-maximal inhibitory concentration (IC50) in assay [1] and in assay [2] were 90 nM and 520 nM, respectively.
For `C#C[C@](C)(c1ccc(Cl)cc1)c1csc(NC(=O)N2CC(CN3CCNCC3)C2)n1` (stereo in doubt) [Example A291, N-(4-(2-(4-chlorophenyl)but-3-yn-2-yl)thiazol-2-yl)-3-(piperazin-1-ylmethyl)azetidine-1-carboxamide], the IC50 amounted to 109 nM in assay [1] and 1650 nM in assay [2].
The matching figures for `C#CC(C)(c1ccc(Br)cc1)c1csc(NC(=O)NCCCO)n1` (centres unmarked) [Example A154, 1-(4-(2-(4-bromophenyl)but-3-yn-2-yl)thiazol-2-yl)-3-(3-hydroxypropyl)urea]: 21 nM and 380 nM.
Regarding `C#CC(C)(c1ccc(Cl)cc1)c1csc(NC(=O)N2CC(CN3CCNCC3)C2)n1` (centres unmarked) [Example A259, N-(4-(2-(4-chlorophenyl)but-3-yn-2-yl)thiazol-2-yl)-3-(piperazin-1-ylmethyl)azetidine-1-carboxamide], the IC50 in assay [1] stood at 48 nM; in assay [2] it was 440 nM.
The matching figures for `C#CC(C)(c1ccc(Br)cc1)c1csc(NC(N)=O)n1` (centres unmarked) [Example A162, 1-(4-(2-(4-bromophenyl)but-3-yn-2-yl)thiazol-2-yl)urea]: 38 nM and 180 nM.
As for `COc1ccc(C(C)(C)c2csc(NC(=O)NC(C)c3ccc(N4CCNCC4)nc3)n2)cc1` (centres unmarked) [Example A001, 1-(4-(2-(4-methoxyphenyl)propan-2-yl)thiazol-2-yl)-3-(1-(6-(piperazin-1-yl)pyridin-3-yl)ethyl)urea], the half-inhibitory concentration (IC50) in assay [1] came to 58 nM; in assay [2], 670 nM.
The matching figures for `C#CC(C)(c1ccc(Br)cc1)c1csc(NC(=O)N2CC(c3ccc(N4CCNCC4)cc3)C2)n1` (centres unmarked) [Example A237, N-(4-(2-(4-bromophenyl)but-3-yn-2-yl)thiazol-2-yl)-3-(4-(piperazin-1-yl)phenyl)azetidine-1-carboxamide]: 7 nM and 610 nM.
The matching figures for `COc1ccc(C(C)(C)c2csc(NC(=O)NCc3cncnc3)n2)cc1` [Example A104, 1-(4-(2-(4-methoxyphenyl)propan-2-yl)thiazol-2-yl)-3-(pyrimidin-5-ylmethyl)urea]: 223 nM and 1690 nM.
Turning to `C#CC(C)(c1ccc(Cl)cc1)c1csc(NC(=O)NC2CCN(Cc3ccc(C)cc3)C2)n1` (centres unmarked) [Example A309, 1-(4-(2-(4-chlorophenyl)but-3-yn-2-yl)thiazol-2-yl)-3-(1-(4-methylbenzyl)pyrrolidin-3-yl)urea], the IC50 stood at 1410 nM in assay [1] and 4120 nM in assay [2].
`CC(C)(c1ccc(Br)cc1)c1csc(NC(=O)NCc2ccc(CN3CCNCC3)cc2)n1` [Example A026, 1-(4-(2-(4-bromophenyl)propan-2-yl)thiazol-2-yl)-3-(4-(piperazin-1-ylmethyl)benzyl)urea]: the concentration for half-maximal inhibition (IC50) in assay [1] amounted to 117 nM; in assay [2], 1250 nM.
In the case of `CN1CCN(Cc2ccc(CNC(=O)Nc3nc(C(C)(C)c4ccc(Br)cc4)cs3)cc2)CC1` [Example A016, 1-(4-(2-(4-bromophenyl)propan-2-yl)thiazol-2-yl)-3-(4-((4-methylpiperazin-1-yl)methyl)benzyl)urea], the IC50 in assay [1] was 27 nM; in assay [2], 2340 nM.
On to `CC(C)(c1ccc(Br)cc1)c1csc(NC(=O)NCCCN2CCNCC2)n1` [Example A102, 1-(4-(2-(4-bromophenyl)propan-2-yl)thiazol-2-yl)-3-(3-(piperazin-1-yl)propyl)urea], for which the half-maximal inhibitory concentration (IC50) in assay [1] is 90 nM; in assay [2] it was 710 nM.
`CC(C)(c1ccc(Br)cc1)c1csc(NC(=O)NCCF)n1` [Example A020, 1-(4-(2-(4-bromophenyl)propan-2-yl)thiazol-2-yl)-3-(2-fluoroethyl)urea]: the half-maximal inhibitory concentration (IC50) came to 144 nM in assay [1] and 6790 nM in assay [2].
The matching figures for `CCC(C)(c1ccc(OC)cc1)c1csc(NC(=O)NC(C)c2ccc(N3CCNCC3)cc2)n1` (centres unmarked) [Example A076, 1-(4-(2-(4-methoxyphenyl)butan-2-yl)thiazol-2-yl)-3-(1-(4-(piperazin-1-yl)phenyl)ethyl)urea]: 147 nM and 4480 nM.
For `CN1CCN(Cc2c(F)cc(CNC(=O)Nc3nc(C(C)(C)c4ccc(Br)cc4)cs3)cc2F)CC1` [Example A117, 1-(4-(2-(4-bromophenyl)propan-2-yl)thiazol-2-yl)-3-(3,5-difluoro-4-((4-methylpiperazin-1-yl)methyl)benzyl)urea] the same measures were 67 nM and 5030 nM.
Turning to `COc1ccc(C(C)(C)c2csc(NC(=O)NCCCCN3CCC(N)C3)n2)cc1` (centres unmarked) [Example A077, 1-(4-(3-aminopyrrolidin-1-yl)butyl)-3-(4-(2-(4-methoxyphenyl)propan-2-yl)thiazol-2-yl)urea], the results for the IC50 in assay [1] and in assay [2] were 180 nM and 2970 nM, respectively.
In the case of `COc1ccc(C(C)(C)c2csc(NC(=O)NCc3ccc(N4CCNCC4)c(CO)c3)n2)cc1` [Example A058, 1-(3-(hydroxymethyl)-4-(piperazin-1-yl)benzyl)-3-(4-(2-(4-methoxyphenyl)propan-2-yl)thiazol-2-yl)urea], the IC50 in assay [1] is 130 nM; in assay [2], 3100 nM.
As for `COc1ccc(C(C)(C)c2csc(NC(=O)NCc3cnc(N4CCN(CCO)CC4)nc3)n2)cc1` [Example A208, 1-((2-(4-(2-hydroxyethyl)piperazin-1-yl)pyrimidin-5-yl)methyl)-3-(4-(2-(4-methoxyphenyl)propan-2-yl)thiazol-2-yl)urea], the half-maximal inhibitory concentration (IC50) was determined as 78 nM in assay [1] and 760 nM in assay [2].
As to `CC(C)(c1ccc(C2CC2)cc1)c1csc(NC(=O)NCc2ccc(N3CCNCC3)cc2)n1` [Example A025, 1-(4-(2-(4-cyclopropylphenyl)propan-2-yl)thiazol-2-yl)-3-(4-(piperazin-1-yl)benzyl)urea], the results for the half-maximal inhibitory concentration (IC50) in assay [1] and in assay [2] were 334 nM and 8580 nM, respectively.
Take `COc1ccc(C(C)(C)c2csc(NC(=O)NCc3cnc(N4CCNCC4)c(F)c3)n2)cc1` [Example A036, 1-((5-fluoro-6-(piperazin-1-yl)pyridin-3-yl)methyl)-3-(4-(2-(4-methoxyphenyl)propan-2-yl)thiazol-2-yl)urea]: the figures for the IC50 in assay [1] and in assay [2] were 24 nM and 620 nM, respectively.
`CC(O)(c1ccc(Br)cc1)c1csc(NC(=O)NCc2ccc(N3CCNCC3)c(F)c2)n1` (centres unmarked) [Example A056, 1-(4-(1-(4-bromophenyl)-1-hydroxyethyl)thiazol-2-yl)-3-(3-fluoro-4-(piperazin-1-yl)benzyl)urea]: the IC50 worked out at 176 nM in assay [1] and 1060 nM in assay [2].
For `CC(C)(c1ccc(Br)cc1)c1csc(NC(=O)NCc2cnc(N3CCCNCC3)nc2)n1` [Example A091, 1-((2-(1,4-diazepan-1-yl)pyrimidin-5-yl)methyl)-3-(4-(2-(4-bromophenyl)propan-2-yl)thiazol-2-yl)urea] the same measures were 135 nM and 3450 nM.
For `C#CC(C)(c1ccc(Br)cc1)c1csc(NC(=O)N2CC(O)C2)n1` (centres unmarked) [Example A153, N-(4-(2-(4-bromophenyl)but-3-yn-2-yl)thiazol-2-yl)-3-hydroxyazetidine-1-carboxamide] the same measures were 76 nM and 370 nM.
On to `COCCOc1cc(CNC(=O)Nc2nc(C(C)(C)c3ccc(Br)cc3)cs2)ccc1N1CCNCC1` [Example A055, 1-(4-(2-(4-bromophenyl)propan-2-yl)thiazol-2-yl)-3-(3-(2-methoxyethoxy)-4-(piperazin-1-yl)benzyl)urea], for which the figures for the IC50 in assay [1] and in assay [2] were 182 nM and 4700 nM, respectively.
For `C#C[C@](C)(c1ccc(Cl)cc1)c1csc(NC(=O)N2CC(CO)C2)n1` [Example A257, (R)-N-(4-(2-(4-chlorophenyl)but-3-yn-2-yl)thiazol-2-yl)-3-(hydroxymethyl)azetidine-1-carboxamide] the same measures were 1550 nM and 2010 nM.
For the compound `CC(C)(c1ccc(Br)cc1)c1csc(NC(=O)NCc2cncnc2)n1` [Example A004, 1-(4-(2-(4-bromophenyl)propan-2-yl)thiazol-2-yl)-3-(pyrimidin-5-ylmethyl)urea], the values for the IC50 in assay [1] and in assay [2] were 240 nM and 2030 nM, respectively.
Turning to `C#CC(C)(c1ccc(Cl)cc1)c1csc(NC(=O)N2CCC(O)C2)n1` (centres unmarked) [Example A269, N-(4-(2-(4-chlorophenyl)but-3-yn-2-yl)thiazol-2-yl)-3-hydroxypyrrolidine-1-carboxamide], the IC50 in assay [1] turned out to be 881 nM; in assay [2] it was 1260 nM.
As to `CC(C)(c1ccc(Br)cc1)c1csc(NC(=O)NCCCCN)n1` [Example A028, 1-(4-aminobutyl)-3-(4-(2-(4-bromophenyl)propan-2-yl)thiazol-2-yl)urea], the IC50 in assay [1] was 53 nM; in assay [2], 2560 nM.
Regarding `C#C[C@@](C)(c1ccc(Br)cc1)c1csc(NC(=O)NCC(C)(C)O)n1` (stereo in doubt) [Example A306, 1-[4-[1-(4-bromophenyl)-1-methyl-prop-2-ynyl]thiazol-2-yl]-3-(2-hydroxy-2-methyl-propyl)urea], the figures for the IC50 in assay [1] and in assay [2] were 56 nM and 830 nM, respectively.
As for `COc1ccc(C(C)(C)c2csc(NC(=O)NCCc3ccncc3)n2)cc1` [Example A124, 1-(4-(2-(4-methoxyphenyl)propan-2-yl)thiazol-2-yl)-3-(2-(pyridin-4-yl)ethyl)urea], the concentration for half-maximal inhibition (IC50) worked out at 165 nM in assay [1] and 1050 nM in assay [2].
With `C#C[C@](C)(c1ccc(Br)cc1)c1csc(NC(=O)NCC(O)CO)n1` (stereo in doubt) [Example A277, 1-(4-(2-(4-bromophenyl)but-3-yn-2-yl)thiazol-2-yl)-3-(2,3-dihydroxypropyl)urea], the figures for the half-inhibitory concentration (IC50) in assay [1] and in assay [2] were 2670 nM and 1230 nM, respectively.

Source of the values: patent publication US20240109853A1 (Shanghai Yao Yuan Biotechnology Co., Ltd., priority 2020, published 2024).
